23 compounds from patent US4141899A, “4,5,6,7-Tetrahydroimidazo-[4,5-c]-pyridine derivatives” (Societa' Farmaceutici Italia S.p.A., priority 1976, dated 1979) can be followed below.

Structures are written as SMILES. Where two headings read alike, the source gives them in different places. A value given as a limit tells only on which side of the number the result lay.

Holding throughout (format): in vivo, Sprague-Dawley male rats
Test [1] concerns chromodacryorhea induced by carbacholine. The experiment in a line: Anticholinergic activity in rats (antagonism against chromodacryorhea induced by carbacholine). The following applies: for ED50: Rattus norvegicus, po, read-out: anticholinergic ED50 p.o. (B); for B/A (ratio of ED50's for oral anti-cholinergic and anti-ulcer activities): B = anticholinergic ED50, A = antiulcer ED50. The text has this:
3. Anticholinergic activity in rats. […] J. Pharm. […] From 3 to 5 Sprague-Dawley male rats, 250 g body weight, have been employed for each group. […] The compound reference numbers are explained in the Examples below.

A further test concerns gastric secretion. Description: Inhibition of gastric secretion in rats (pylorus ligature technique). The following applies: Rattus norvegicus, sc, s.c. at the time of pylorus ligature, 4 h, read-out: Antisecretory ED50 s.c. As for the experimental part:
2. […] Gastric antisecretory activity was evaluated in rats by the pylorus ligature technique.
Six Sprague-Dawley male rats (110-130 g) were used for each group. Twenty-four hours before the test, the rats were deprived of food but their water supply was maintained.
On the day of the operation, the pylorus was ligated under light ether anaesthesia. Four hours after the ligature, the rats were sacrificed, the stomach secretion was collected and centrifuged at 3500 r.p.m. for 10 minutes, and the volume, less sediment, was determined. The amount of the free hydrochloric acid in the gastric juice was determined by titration against 0.01N sodium hydroxide, using Topfer's Indicator.
Each compound was injected subcutaneously at the time of ligature.

In another test the test system is restraint ulcer. The experiment in a line: Inhibition of restraint ulcer in rats. The following applies: Rattus norvegicus. As for the experimental part: 1. […] Six Sprague-Dawley male rats (100-200 g) fasted for 24 hours were used for each group.
A square flexible small-mesh wire netting was used for immobilization. After 4 hours immobilization the rats were sacrificed, their stomachs were removed, and lesions counted under a dissecting microscope.
The compounds were administered subcutaneously (s.c.) immediately before the immobilization or orally (os) one hour before.

Setting [2] is: po, p.o. one hour before 4 h immobilization, read-out: Antiulcer ED50 p.o (A).
Setting [3] is: sc, s.c. immediately before 4 h immobilization, read-out: Antiulcer ED50 s.c.
Where [4] appears, read: rats, p.o., carbacholine-induced chromodacryorhea.

Usually ED50 stands for the midpoint of the dose-response relation. As for `CN1[C@@H]2CC[C@H]1C[C@@H](OC(=O)C(CO)c1ccccc1)C2` (stereo partly shown) [Atropine, reference compound], the 50% effective dose (ED50) in test [1] was found to be 0.8 mg/kg; in the test on gastric secretion, 0.1 mg/kg; with restraint ulcer (setting [2]), 0.4 mg/kg; with restraint ulcer (setting [3]), 0.02 mg/kg. The “B/A (ratio of ED50's for oral anti-cholinergic and anti-ulcer activities)” value in test [1] (rats, p.o.) was 2; in test [1] (rats, p.o., listed as atropine) it was “about 2”.
On to `CNC(=S)NCCSCc1nc[nH]c1C` [Methiamide, reference compound], for which the 50% effective dose (ED50) in test [1] (setting [4]) turned out to be 85 mg/kg; in the test with gastric secretion, 60 mg/kg; in the test with restraint ulcer (setting [2]), 64 mg/kg; in the test on restraint ulcer (setting [3]), 14 mg/kg. Besides, the “B/A (ratio of ED50's for oral anti-cholinergic and anti-ulcer activities)” value in test [1] (rats, p.o.) is 1.3; in test [1] (rats, p.o., listed as methiamide), “about 2”.
As for `CNC(=S)N1CCc2[nH]cnc2C1` [compound 1068, 5-(N-methyl-thiocarbamoyl)-4,5,6,7-tetrahydroimidazo-[4,5-c]-pyridine], the ED50 in test [1] (setting [4]) was above 100 mg/kg; in the test on gastric secretion it was above 50 mg/kg; with restraint ulcer (setting [2]), 2.4 mg/kg; in the test with restraint ulcer (setting [3]), 0.6 mg/kg. The “B/A (ratio of ED50's for oral anti-cholinergic and anti-ulcer activities)” value in test [1] (rats, p.o.) is listed as above 40.
In the case of `CC(C)NC(=S)N1CCc2[nH]cnc2C1` [compound 1087, 5-(N-isopropyl-thiocarbamoyl)-4,5,6,7-tetrahydro-imidazo-[4,5-c]-pyridine], the ED50 was found to be 2 mg/kg in test [1] (setting [4]), 6 mg/kg with gastric secretion, 3.1 mg/kg in the test on restraint ulcer (setting [2]) and 0.9 mg/kg with restraint ulcer (setting [3]). The “B/A (ratio of ED50's for oral anti-cholinergic and anti-ulcer activities)” value in test [1] (rats, p.o.) is 0.6.
Turning to `S=C(Nc1ccccc1)N1CCc2[nH]cnc2C1` [compound 1116, 5-(N-Phenyl-thiocarbamoyl)-4,5,6,7-tetrahydro-imidazo-[4,5-c]-pyridine], the results for the ED50 in the test with gastric secretion, in the test with restraint ulcer (setting [2]) and with restraint ulcer (setting [3]) were 23 mg/kg, above 34 mg/kg and above 10 mg/kg, respectively.
For the compound `CCC1c2nc[nH]c2CCN1C(=S)NC(C)C` (stereo not shown) [compound 1184, 4-Ethyl-5-(N-isopropyl-thiocarbamoyl)-4,5,6,7-tetrahydro-imidazo-[4,5-c]-pyridine], the 50% effective dose (ED50) in test [1] (setting [4]) turned out to be 10 mg/kg; in the test on gastric secretion it was 22 mg/kg; with restraint ulcer (setting [2]) it was 11 mg/kg; with restraint ulcer (setting [3]) it was 0.64 mg/kg.
On to `CC(C)NC(=S)N1CCc2ncn(C)c2C1` [compound 1286], for which the ED50 in test [1] (setting [4]) was above 50 mg/kg; in the test with gastric secretion, 34 mg/kg; in the test with restraint ulcer (setting [2]), 8.5 mg/kg; in the test with restraint ulcer (setting [3]), 0.85 mg/kg. Also, the “B/A (ratio of ED50's for oral anti-cholinergic and anti-ulcer activities)” value in test [1] (rats, p.o.) is on record as above 5.8.
`CCNC(=S)N1CCc2[nH]cnc2C1` [compound 1293, 5-(N-ethyl-thiocarbamoyl)-4,5,6,7-tetrahydro-imidazo-[4,5-c]-pyridine]: the values for the median effective dose (ED50) in the test on gastric secretion, with restraint ulcer (setting [2]) and with restraint ulcer (setting [3]) were 8 mg/kg, 25 mg/kg and 6 mg/kg, respectively.
Take `CCC1c2nc[nH]c2CCN1C(=O)NC(C)C` (stereo not shown) [compound 1316, 4-Ethyl-5-(N-isopropyl-carbamoyl)-4,5,6,7-tetrahydro-imidazo-[4,5-c]-pyridine]: the ED50 in test [1] (setting [4]) is 70 mg/kg; in the test with gastric secretion, 50 mg/kg; with restraint ulcer (setting [2]), 6.6 mg/kg; in the test on restraint ulcer (setting [3]) it was 0.75 mg/kg. Besides, in test [1] (rats, p.o.), the “B/A (ratio of ED50's for oral anti-cholinergic and anti-ulcer activities)” value is on record as 10.
Turning to `CC(C)NC(=O)N1CCc2[nH]cnc2C1` [compound 1348, 5-(N-isopropyl-carbamoyl)-4,5,6,7-tetrahydro-imidazo-[4,5-c]-pyridine], the ED50 stood at 7.8 mg/kg in test [1] (setting [4]), 18 mg/kg in the test on gastric secretion, 0.55 mg/kg with restraint ulcer (setting [2]) and 0.1 mg/kg in the test with restraint ulcer (setting [3]). In addition, the “B/A (ratio of ED50's for oral anti-cholinergic and anti-ulcer activities)” value in test [1] (rats, p.o.) worked out at 14.
Take `CNC(=O)N1CCc2[nH]cnc2C1` [compound 1350, 5-(N-methyl-carbamoyl)-4,5,6,7-tetrahydro-imidazo-[4,5-c]-pyridine]: the 50% effective dose (ED50) was above 100 mg/kg in test [1] (setting [4]), above 50 mg/kg with gastric secretion, 5.6 mg/kg in the test on restraint ulcer (setting [2]) and 6.5 mg/kg in the test on restraint ulcer (setting [3]). Further, the “B/A (ratio of ED50's for oral anti-cholinergic and anti-ulcer activities)” value in test [1] (rats, p.o.) is recorded as above 18.
Regarding `S=C(NC1CC1)N1CCc2[nH]cnc2C1` [compound 1359, 5-(N-cyclopropyl-thiocarbamoyl)-4,5,6,7-tetrahydro-imidazo-[4,5-c]-pyridine], the ED50 was 45.5 mg/kg in test [1] (setting [4]), 40 mg/kg in the test with gastric secretion, 1.8 mg/kg in the test with restraint ulcer (setting [2]) and 5 mg/kg with restraint ulcer (setting [3]). For the same compound, the “B/A (ratio of ED50's for oral anti-cholinergic and anti-ulcer activities)” value in test [1] (rats, p.o.) amounted to 25.
`S=C(NC1CCCC1)N1CCc2[nH]cnc2C1` [compound 1360, 5-(N-cyclopentyl-thiocarbamoyl)-b 4,5,6,7-tetrahydro-imidazo-[4,5-c]-pyridine]: the ED50 in test [1] (setting [4]) is 76 mg/kg; with gastric secretion, 19 mg/kg; in the test on restraint ulcer (setting [2]) it was 5.6 mg/kg; with restraint ulcer (setting [3]) it was above 10 mg/kg. Besides, the “B/A (ratio of ED50's for oral anti-cholinergic and anti-ulcer activities)” value in test [1] (rats, p.o.) amounted to 13.
`CCCNC(=S)N1CCc2[nH]cnc2C1` [compound 1361, 5-(N-n-propyl-thiocarbamoyl)-4,5,6,7-tetrahydro-imidazo-[4,5-c]-pyridine]: the ED50 in the test on gastric secretion turned out to be 50 mg/kg; in the test with restraint ulcer (setting [2]) it was 25 mg/kg; with restraint ulcer (setting [3]) it was 10 mg/kg.
With `O=C(NC1CC1)N1CCc2[nH]cnc2C1` [compound 1365, 5-(N-cyclopropyl-carbamoyl)-4,5,6,7-tetrahydro-imidazo-[4,5-c]-pyridine], the median effective dose (ED50) in test [1] (setting [4]) was determined as 21 mg/kg; in the test on gastric secretion, 50 mg/kg; in the test on restraint ulcer (setting [2]), 3.8 mg/kg; in the test on restraint ulcer (setting [3]), 2 mg/kg. Moreover, the “B/A (ratio of ED50's for oral anti-cholinergic and anti-ulcer activities)” value in test [1] (rats, p.o.) is 5.5.
As for `O=C(NC1CCCC1)N1CCc2[nH]cnc2C1` [compound 1366, 5-(N-cyclopentyl-carbamoyl)-4,5,6,7-tetrahydro-imidazo-[4,5-c]-pyridine], the ED50 in test [1] (setting [4]) came out at 10 mg/kg; in the test on gastric secretion it was 17 mg/kg; with restraint ulcer (setting [2]) it was 3.8 mg/kg; with restraint ulcer (setting [3]), 0.75 mg/kg. Also, the “B/A (ratio of ED50's for oral anti-cholinergic and anti-ulcer activities)” value in test [1] (rats, p.o.) worked out at 2.6.
For the compound `CC(C)NC(=S)N1CCc2[nH]cnc2C1C1CCCCC1` (stereo not shown) [compound 1367, 4-Cyclohexyl-5-(N-isopropyl-thiocarbamoyl)-4,5,6,7-tetrahydro-imidazo-[4,5-c]-pyridine], the ED50 in test [1] (setting [4]) is above 100 mg/kg; in the test on gastric secretion, above 50 mg/kg; in the test on restraint ulcer (setting [2]), 6 mg/kg; with restraint ulcer (setting [3]), 3.3 mg/kg. Besides, the “B/A (ratio of ED50's for oral anti-cholinergic and anti-ulcer activities)” value in test [1] (rats, p.o.) was above 18.
As to `CCC1c2c(ncn2CC)CCN1C(=S)NC(C)C` (stereo not shown) [compound 1399, 3,4-Diethyl-5-(N-isopropyl-thiocarbamoyl)-4,5,6,7-tetrahydroimidazo-[4,5-c]-pyridine], the median effective dose (ED50) was above 100 mg/kg in test [1] (setting [4]), 4 mg/kg with restraint ulcer (setting [2]) and 3.5 mg/kg in the test with restraint ulcer (setting [3]). The “B/A (ratio of ED50's for oral anti-cholinergic and anti-ulcer activities)” value in test [1] (rats, p.o.) is given as above 25.
Consider `CCC1c2c(ncn2CC)CCN1C(=O)NC(C)C` (stereo not shown) [compound 1400, 3,4-Diethyl-5-(N-isopropyl-carbamoyl)-4,5,6,7-tetrahydro-imidazo-[4,5-c]-pyridine], for which the ED50 in test [1] (setting [4]) was above 100 mg/kg; in the test with gastric secretion, 50 mg/kg; with restraint ulcer (setting [2]), 18 mg/kg; in the test with restraint ulcer (setting [3]) it was 10 mg/kg. Also, in test [1] (rats, p.o.), the “B/A (ratio of ED50's for oral anti-cholinergic and anti-ulcer activities)” value is listed as above 5.5.
As to `CCC1c2c(ncn2C)CCN1C(=O)NC(C)C` (stereo not shown) [compound 1404, 3-Methyl-4-ethyl-5-(N-isopropyl-carbamoyl)-4,5,6,7-tetrahydroimidazo-[4,5-c]-pyridine], the ED50 is above 50 mg/kg in the test on gastric secretion, 34 mg/kg with restraint ulcer (setting [2]) and 10 mg/kg with restraint ulcer (setting [3]).
With `CCC1c2nc[nH]c2CCN1C(=N)NC(=O)c1ccccc1` (stereo not shown) [compound 1448, 4-Ethyl-5-(N-benzoylguanyl)-4,5,6,7-tetrahydroimidazo-[4,5-c]-pyridine], the ED50 is above 100 mg/kg in test [1] (setting [4]), above 50 mg/kg in the test with gastric secretion, 22 mg/kg in the test on restraint ulcer (setting [2]) and above 10 mg/kg with restraint ulcer (setting [3]). For the same compound, in test [1] (rats, p.o.), the “B/A (ratio of ED50's for oral anti-cholinergic and anti-ulcer activities)” value is above 4.
Consider `N=C(NC(=O)c1ccccc1)N1CCc2[nH]cnc2C1` [compound 1450, 5-(N-benzoylguanyl)-4,5,6,7-tetrahydroimidazo-[4,5-c]-pyridine], for which the ED50 was above 50 mg/kg in the test with gastric secretion, 34 mg/kg with restraint ulcer (setting [2]) and above 10 mg/kg in the test with restraint ulcer (setting [3]).
Consider `CC(C)NC(=O)N1CCc2[nH]cnc2C1c1ccncc1` (stereo not shown) [compound 1467, 4-(4-pyridyl)-5-(N-isopropyl-carbamoyl)-4,5,6,7-tetrahydroimidazo-[4,5-c]-pyridine], for which the ED50 in the test on gastric secretion is above 50 mg/kg; with restraint ulcer (setting [2]) it was 50 mg/kg; with restraint ulcer (setting [3]), 7 mg/kg.
